How the values were obtained:
Assay in all cases: radiometric filter-binding kinase assay
MINK1 (human) = MINK1 (human) (UniProt Q8N4C8)
HIPK2 (human) = HIPK2 (human) (UniProt Q9H2X6)
CAMKK2 (human) = CAMKK2 (human) (UniProt Q96RR4)
MAPK8 (human) = MAPK8 (human) (UniProt P45983)
AURKB (human) = AURKB (human) (UniProt Q96GD4)
MELK (human) = MELK (human) (UniProt Q14680)
IGF1R (human) = IGF1R (human) (UniProt P08069)
IKBKE (human) = IKBKE (human) (UniProt Q14164)
CaMK1 (human) = CaMK1 (human) (UniProt Q14012)
EPHB3 (human) = EPHB3 (human) (UniProt P54753)
MAPKAPK2 (human) = MAPKAPK2 (human) (UniProt P49137)
PAK4 (human) = PAK4 (human) (UniProt O96013)
YES1 (human) = YES1 (human) (UniProt P07947)
MAPK15 (human) = MAPK15 (human) (UniProt Q8TD08)
MAPK14 (human) = MAPK14 (human) (UniProt Q16539)
DYRK1A (human) = DYRK1A (human) (UniProt Q13627)
MAPK12 (human) = MAPK12 (human) (UniProt P53778)
PIM1 (human) = PIM1 (human) (UniProt P11309); conditions: compound 0.1 µM

Chain of MAPK12 (human) (P53778 whole entry, looked up): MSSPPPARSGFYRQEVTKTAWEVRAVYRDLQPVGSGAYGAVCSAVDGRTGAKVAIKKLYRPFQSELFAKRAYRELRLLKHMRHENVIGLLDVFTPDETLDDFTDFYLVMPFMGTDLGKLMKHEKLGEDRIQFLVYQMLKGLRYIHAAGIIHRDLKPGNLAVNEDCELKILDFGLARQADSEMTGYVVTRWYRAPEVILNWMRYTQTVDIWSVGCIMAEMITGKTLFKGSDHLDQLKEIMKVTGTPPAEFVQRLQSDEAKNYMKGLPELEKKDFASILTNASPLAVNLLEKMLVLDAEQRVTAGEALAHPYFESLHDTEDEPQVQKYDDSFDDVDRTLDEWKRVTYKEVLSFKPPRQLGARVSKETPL
Chain of YES1 (human) (P07947 whole entry, looked up): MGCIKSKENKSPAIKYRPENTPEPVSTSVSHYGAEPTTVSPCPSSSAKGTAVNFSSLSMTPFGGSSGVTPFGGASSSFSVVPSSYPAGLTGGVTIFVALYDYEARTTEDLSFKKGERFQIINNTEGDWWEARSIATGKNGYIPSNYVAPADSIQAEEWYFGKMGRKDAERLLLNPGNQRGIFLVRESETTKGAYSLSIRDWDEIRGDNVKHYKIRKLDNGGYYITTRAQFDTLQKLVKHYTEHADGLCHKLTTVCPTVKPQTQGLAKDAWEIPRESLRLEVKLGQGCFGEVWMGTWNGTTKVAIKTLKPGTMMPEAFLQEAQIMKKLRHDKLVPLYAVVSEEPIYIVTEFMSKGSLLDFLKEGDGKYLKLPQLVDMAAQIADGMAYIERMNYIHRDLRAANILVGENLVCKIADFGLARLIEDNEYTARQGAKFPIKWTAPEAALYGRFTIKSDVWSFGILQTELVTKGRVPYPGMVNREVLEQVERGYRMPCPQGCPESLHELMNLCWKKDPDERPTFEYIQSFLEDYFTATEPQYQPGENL
Chain of MAPKAPK2 (human) (P49137 whole entry, looked up): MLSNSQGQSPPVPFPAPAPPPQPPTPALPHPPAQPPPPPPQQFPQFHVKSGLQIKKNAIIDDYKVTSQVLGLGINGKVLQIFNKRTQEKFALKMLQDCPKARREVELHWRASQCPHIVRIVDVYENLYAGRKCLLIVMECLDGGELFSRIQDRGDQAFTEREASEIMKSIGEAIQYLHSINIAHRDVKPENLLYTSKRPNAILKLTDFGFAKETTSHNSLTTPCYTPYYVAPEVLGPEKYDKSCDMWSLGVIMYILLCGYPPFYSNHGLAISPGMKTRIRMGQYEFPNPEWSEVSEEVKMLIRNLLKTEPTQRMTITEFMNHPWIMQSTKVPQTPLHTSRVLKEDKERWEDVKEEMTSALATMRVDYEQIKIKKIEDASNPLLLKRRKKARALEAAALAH
Chain of PAK4 (human) (O96013 whole entry, looked up): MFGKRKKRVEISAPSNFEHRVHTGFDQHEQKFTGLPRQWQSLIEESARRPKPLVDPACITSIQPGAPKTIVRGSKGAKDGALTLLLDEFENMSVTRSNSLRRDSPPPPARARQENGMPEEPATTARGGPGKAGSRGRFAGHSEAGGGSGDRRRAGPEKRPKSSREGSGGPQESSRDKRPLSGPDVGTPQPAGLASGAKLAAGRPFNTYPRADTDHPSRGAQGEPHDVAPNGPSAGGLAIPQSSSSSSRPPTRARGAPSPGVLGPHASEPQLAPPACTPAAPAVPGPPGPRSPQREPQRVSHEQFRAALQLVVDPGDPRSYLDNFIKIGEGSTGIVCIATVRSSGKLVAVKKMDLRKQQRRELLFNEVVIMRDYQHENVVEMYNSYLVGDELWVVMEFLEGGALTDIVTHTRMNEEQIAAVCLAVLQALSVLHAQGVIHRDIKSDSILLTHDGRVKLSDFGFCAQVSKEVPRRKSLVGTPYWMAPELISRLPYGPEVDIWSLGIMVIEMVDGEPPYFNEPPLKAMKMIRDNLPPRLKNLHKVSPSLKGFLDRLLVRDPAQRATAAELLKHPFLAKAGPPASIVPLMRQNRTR
Chain of MAPK15 (human) (Q8TD08 whole entry, looked up): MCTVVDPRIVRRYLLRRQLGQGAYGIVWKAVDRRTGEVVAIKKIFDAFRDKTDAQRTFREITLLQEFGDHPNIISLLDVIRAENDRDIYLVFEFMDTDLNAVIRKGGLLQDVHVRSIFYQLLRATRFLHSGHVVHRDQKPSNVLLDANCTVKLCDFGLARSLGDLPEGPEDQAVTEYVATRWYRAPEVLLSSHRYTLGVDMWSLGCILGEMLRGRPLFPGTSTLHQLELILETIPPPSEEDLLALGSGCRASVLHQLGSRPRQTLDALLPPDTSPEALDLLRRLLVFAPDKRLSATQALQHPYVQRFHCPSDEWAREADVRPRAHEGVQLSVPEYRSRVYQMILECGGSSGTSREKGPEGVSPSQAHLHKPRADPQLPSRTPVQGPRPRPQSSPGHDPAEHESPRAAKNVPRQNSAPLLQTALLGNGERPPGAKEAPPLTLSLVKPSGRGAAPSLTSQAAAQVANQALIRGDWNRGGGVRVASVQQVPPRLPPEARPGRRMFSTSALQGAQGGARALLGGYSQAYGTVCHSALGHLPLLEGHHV
Chain of CaMK1 (human) (Q14012 whole entry, looked up): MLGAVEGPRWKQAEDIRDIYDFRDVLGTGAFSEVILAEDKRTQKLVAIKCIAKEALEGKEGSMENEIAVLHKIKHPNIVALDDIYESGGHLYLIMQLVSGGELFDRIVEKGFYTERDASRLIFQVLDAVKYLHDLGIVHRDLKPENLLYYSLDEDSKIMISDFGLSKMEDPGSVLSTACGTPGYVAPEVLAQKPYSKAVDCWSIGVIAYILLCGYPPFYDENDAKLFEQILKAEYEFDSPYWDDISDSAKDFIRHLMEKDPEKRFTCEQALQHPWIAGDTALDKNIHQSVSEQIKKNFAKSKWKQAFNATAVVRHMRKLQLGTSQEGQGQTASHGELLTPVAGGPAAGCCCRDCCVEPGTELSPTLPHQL
Chain of MINK1 (human) (Q8N4C8 whole entry, looked up): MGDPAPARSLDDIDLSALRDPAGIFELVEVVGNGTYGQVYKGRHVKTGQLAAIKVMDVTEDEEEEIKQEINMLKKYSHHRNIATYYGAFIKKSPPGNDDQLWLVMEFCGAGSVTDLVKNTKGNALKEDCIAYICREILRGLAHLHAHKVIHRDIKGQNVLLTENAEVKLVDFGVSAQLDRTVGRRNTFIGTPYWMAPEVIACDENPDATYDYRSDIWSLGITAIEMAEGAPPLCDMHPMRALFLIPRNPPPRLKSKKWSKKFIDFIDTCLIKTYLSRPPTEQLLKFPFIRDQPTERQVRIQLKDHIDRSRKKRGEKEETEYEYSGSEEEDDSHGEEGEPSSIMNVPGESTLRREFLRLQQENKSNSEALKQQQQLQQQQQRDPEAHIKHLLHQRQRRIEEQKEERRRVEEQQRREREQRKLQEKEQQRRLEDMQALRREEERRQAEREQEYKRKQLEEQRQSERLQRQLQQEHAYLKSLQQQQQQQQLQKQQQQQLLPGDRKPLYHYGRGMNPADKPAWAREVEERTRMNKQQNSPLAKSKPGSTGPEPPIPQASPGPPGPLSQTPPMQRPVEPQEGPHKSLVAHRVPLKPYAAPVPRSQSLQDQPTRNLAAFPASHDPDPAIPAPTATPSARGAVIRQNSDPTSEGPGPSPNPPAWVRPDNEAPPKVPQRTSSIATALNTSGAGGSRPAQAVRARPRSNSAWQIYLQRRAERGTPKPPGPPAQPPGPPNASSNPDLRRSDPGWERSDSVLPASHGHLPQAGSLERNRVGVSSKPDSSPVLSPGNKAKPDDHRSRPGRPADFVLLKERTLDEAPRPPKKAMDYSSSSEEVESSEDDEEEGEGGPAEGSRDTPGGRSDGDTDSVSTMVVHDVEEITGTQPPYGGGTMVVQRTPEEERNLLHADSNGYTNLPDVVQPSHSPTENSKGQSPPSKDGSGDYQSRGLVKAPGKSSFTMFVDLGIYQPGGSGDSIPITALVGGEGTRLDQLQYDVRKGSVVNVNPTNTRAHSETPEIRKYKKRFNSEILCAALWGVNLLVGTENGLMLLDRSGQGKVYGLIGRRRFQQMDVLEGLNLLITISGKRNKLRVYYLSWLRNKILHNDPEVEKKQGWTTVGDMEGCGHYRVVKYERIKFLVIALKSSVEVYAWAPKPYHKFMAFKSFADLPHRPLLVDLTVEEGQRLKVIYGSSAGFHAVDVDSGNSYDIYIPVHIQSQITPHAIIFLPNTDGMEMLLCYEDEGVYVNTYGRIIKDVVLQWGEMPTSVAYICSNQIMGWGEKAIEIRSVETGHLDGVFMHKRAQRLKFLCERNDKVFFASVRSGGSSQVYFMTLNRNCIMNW
Chain of AURKB (human) (Q96GD4 whole entry, looked up): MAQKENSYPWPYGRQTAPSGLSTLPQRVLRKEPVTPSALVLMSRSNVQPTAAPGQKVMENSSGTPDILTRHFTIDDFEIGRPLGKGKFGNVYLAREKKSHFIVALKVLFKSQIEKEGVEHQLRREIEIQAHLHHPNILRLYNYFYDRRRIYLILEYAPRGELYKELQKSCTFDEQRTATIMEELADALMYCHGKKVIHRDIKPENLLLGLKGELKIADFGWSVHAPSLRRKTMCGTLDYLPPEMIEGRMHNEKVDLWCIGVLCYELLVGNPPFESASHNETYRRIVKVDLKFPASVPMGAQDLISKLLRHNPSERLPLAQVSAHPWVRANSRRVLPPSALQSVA
Chain of MAPK14 (human) (Q16539 whole entry, looked up): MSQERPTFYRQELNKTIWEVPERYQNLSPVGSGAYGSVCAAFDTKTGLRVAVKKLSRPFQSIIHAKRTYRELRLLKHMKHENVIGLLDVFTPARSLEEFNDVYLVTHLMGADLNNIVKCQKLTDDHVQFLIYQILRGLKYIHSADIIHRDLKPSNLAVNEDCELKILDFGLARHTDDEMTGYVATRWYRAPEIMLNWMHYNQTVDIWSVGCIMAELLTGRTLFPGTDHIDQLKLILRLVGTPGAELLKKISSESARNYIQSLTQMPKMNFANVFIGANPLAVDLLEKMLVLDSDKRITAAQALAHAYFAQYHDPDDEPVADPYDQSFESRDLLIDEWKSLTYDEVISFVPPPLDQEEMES

`CCCCCc1ccc(/C=C/[C@H](O)[C@@H](CO)NC)cc1` gave a residual activity (MINK1 (human); compound 0.1 µM) of 107%, a residual activity (MINK1 (human); compound 1.0 µM) of 93% and a residual activity (MINK1 (human); compound 10.0 µM) of 111%. For the same compound, the residual activity (HIPK2 (human); compound 0.1 µM) was 108%, the residual activity (HIPK2 (human); compound 1.0 µM) was 106% and the residual activity (HIPK2 (human); compound 10.0 µM) was 106%. For the same compound, the residual activity (CAMKK2 (human); compound 0.1 µM) was 97%, the residual activity (CAMKK2 (human); compound 1.0 µM) was 81% and the residual activity (CAMKK2 (human); compound 10.0 µM) was 90%. It also gave a residual activity (MAPK8 (human); compound 0.1 µM) of 98%, a residual activity (MAPK8 (human); compound 1.0 µM) of 94% and a residual activity (AURKB (human); compound 0.1 µM) of 100%. The residual activity (AURKB (human); compound 1.0 µM) was 102%, the residual activity (AURKB (human); compound 10.0 µM) was 93% and the residual activity (MELK (human); compound 0.1 µM) was 108%. For the same compound, the residual activity (MELK (human); compound 1.0 µM) was 99%, the residual activity (MELK (human); compound 10.0 µM) was 98% and the residual activity (IGF1R (human); compound 0.1 µM) was 87%. For the same compound, the residual activity (IGF1R (human); compound 1.0 µM) was 86%, the residual activity (IGF1R (human); compound 10.0 µM) was 93% and the residual activity (IKBKE (human); compound 0.1 µM) was 106%. The residual activity (IKBKE (human); compound 1.0 µM) was 95%, the residual activity (IKBKE (human); compound 10.0 µM) was 86% and the residual activity (CaMK1 (human); compound 0.1 µM) was 106%. It also gave a residual activity (CaMK1 (human); compound 1.0 µM) of 101%, a residual activity (CaMK1 (human); compound 10.0 µM) of 89% and a residual activity (EPHB3 (human); compound 0.1 µM) of 104%. For the same compound, the residual activity (EPHB3 (human); compound 1.0 µM) was 100%, the residual activity (EPHB3 (human); compound 10.0 µM) was 86% and the residual activity (MAPKAPK2 (human); compound 0.1 µM) was 98%. It also gave a residual activity (MAPKAPK2 (human); compound 1.0 µM) of 95%, a residual activity (MAPKAPK2 (human); compound 10.0 µM) of 91% and a residual activity (PAK4 (human); compound 0.1 µM) of 91%. It also gave a residual activity (PAK4 (human); compound 1.0 µM) of 91%, a residual activity (PAK4 (human); compound 10.0 µM) of 85% and a residual activity (YES1 (human); compound 0.1 µM) of 123%. The residual activity (YES1 (human); compound 1.0 µM) was 100%, the residual activity (YES1 (human); compound 10.0 µM) was 109% and the residual activity (MAPK15 (human); compound 0.1 µM) was 82%. For the same compound, the residual activity (MAPK15 (human); compound 1.0 µM) was 86%, the residual activity (MAPK15 (human); compound 10.0 µM) was 77% and the residual activity (MAPK14 (human); compound 0.1 µM) was 95%. It also gave a residual activity (MAPK14 (human); compound 1.0 µM) of 87%, a residual activity (MAPK14 (human); compound 10.0 µM) of 80% and a residual activity (DYRK1A (human); compound 0.1 µM) of 83%. The residual activity (DYRK1A (human); compound 1.0 µM) was 91%, the residual activity (DYRK1A (human); compound 10.0 µM) was 84% and the residual activity (MAPK12 (human); compound 0.1 µM) was 93%. For the same compound, the residual activity (MAPK12 (human); compound 1.0 µM) was 80%, the residual activity (MAPK12 (human); compound 10.0 µM) was 87% and the residual activity (PIM1 (human)) was 100%.

— the kinase profiling compilation of Christmann-Franck et al. (2016)
